# In patent publication US20260297042A1, “BIARYLAMIDE DERIVATIVES AND THEIR USE AS PKMYT1 INHIBITORS” (CANCER RESEARCH TECHNOLOGY LIMITED, priority 2023, published 2026):
# How the values were obtained:
# Human PKMYT1 = target: T1, Human PKMYT1 (Homo sapiens, UniProt Q99640); experiment: PKMYT1 biochemical ADP-Glo enzymatic assay; conditions: ADP-Glo
# T1 construct: Human PKMYT1 75-362 was cloned as a TEV cleavable 6xHis fusion; 6xHis (TEV cleavable) (cleaved yes); made in house; host or cells: bacterial cells
# T1 sequence (Q99640 75-362): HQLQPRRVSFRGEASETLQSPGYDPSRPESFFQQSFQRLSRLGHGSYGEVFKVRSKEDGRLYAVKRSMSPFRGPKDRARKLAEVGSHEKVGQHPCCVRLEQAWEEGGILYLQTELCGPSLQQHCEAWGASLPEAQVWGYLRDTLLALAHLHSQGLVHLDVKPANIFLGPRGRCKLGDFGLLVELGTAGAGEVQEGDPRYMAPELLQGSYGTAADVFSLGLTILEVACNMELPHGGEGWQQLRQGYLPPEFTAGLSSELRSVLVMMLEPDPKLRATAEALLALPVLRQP
# How it was run: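 Luminescent ADP-Glo Max read-out of ADP produced by 15 nM PKMYT1 (residues 75-362, bacterial, His-tag removed) from 500 µM ATP without peptide substrate. Reaction: 50 mM HEPES pH 7.5, 10 mM MgCl2, 1 mM EGTA, 0.01% Brij-35, 60 min, 26 °C. IC50 values fitted from 10-point curves.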
# WEE1 = target: T2, WEE1 (Homo sapiens, UniProt P30291); experiment: Selectivity versus WEE1 assay (ADP-Glo enzymatic assay); assay type: biochemical; conditions: for IC50: ADP-Glo; for PKMYT1 vs. WEE1 selectivity: fold difference in selectivity for PKMYT1 over WEE1
# T2 construct: purchased Thermo Fisher PR7373A
# T2 sequence (P30291 whole entry): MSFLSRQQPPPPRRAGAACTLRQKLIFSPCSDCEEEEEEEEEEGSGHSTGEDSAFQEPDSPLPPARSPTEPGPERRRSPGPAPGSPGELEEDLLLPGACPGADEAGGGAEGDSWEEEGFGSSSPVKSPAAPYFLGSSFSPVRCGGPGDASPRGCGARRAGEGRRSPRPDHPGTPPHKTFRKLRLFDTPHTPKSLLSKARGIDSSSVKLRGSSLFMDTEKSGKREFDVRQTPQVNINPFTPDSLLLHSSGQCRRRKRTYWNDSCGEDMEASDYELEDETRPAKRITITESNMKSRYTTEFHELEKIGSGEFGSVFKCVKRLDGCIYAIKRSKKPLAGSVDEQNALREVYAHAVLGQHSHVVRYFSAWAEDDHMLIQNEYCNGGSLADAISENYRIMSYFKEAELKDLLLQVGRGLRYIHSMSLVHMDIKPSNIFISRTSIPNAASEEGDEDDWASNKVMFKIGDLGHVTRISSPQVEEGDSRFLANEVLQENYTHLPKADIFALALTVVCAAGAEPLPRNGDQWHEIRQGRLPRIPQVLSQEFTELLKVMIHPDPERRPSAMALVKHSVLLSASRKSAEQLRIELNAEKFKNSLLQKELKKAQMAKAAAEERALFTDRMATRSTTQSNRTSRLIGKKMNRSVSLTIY
# How it was run: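 ADP-Glo luminescence read-out after a 60 min reaction at 26° C, initiated by 30 µM ATP, with 15 nM enzyme in HEPES pH 7.5/MgCl2/EGTA/Brij-35 buffer containing 1% DMSO. Replicate IC50 values had to agree within 3-fold and fits needed r2 >0.9.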
# [1] = 15 nM PKMYT1 kinase domain, 500 µM ATP, 60 minutes at 26° C., banded
# [2] = 15 nM WEE1, 60 minutes at 26° C., banded
# [3] = banded, ">N" = at least in this band but could be higher
# [4] = PKMYT1 kinase domain 15 nM, banded values
compound,measurement,setting,value
"Cc1ccc(O)c(C)c1NC(=O)c1cnc(Nc2ccn([C@@H]3CCN(C(=O)C(F)(F)c4ccccc4)C3)n2)s1 [BAA-099, 2-[[1-[(3R)-1-(2,2-Difluoro-2-phenyl-acetyl)pyrrolidin-3-yl]pyrazol-3-yl]amino]-N-(3-hydroxy-2,6-dimethyl-phenyl)thiazole-5-carboxamide]",IC50,Human PKMYT1; [1],0.05 to 1 µM
same,IC50,WEE1; [2],> 11 µM
same,PKMYT1 vs. WEE1 selectivity,WEE1; [3],>X (100-<1000 fold)
"Cc1ccc(C(=O)Nc2ccc(Nc3ncc(C(=O)Nc4c(C)ccc(O)c4C)s3)nc2)c(C)c1 [BAA-297, 2-((5-(2,4-dimethylbenzamido)pyridin-2-yl)amino)-N-(3-hydroxy-2,6-dimethylphenyl)thiazole-5-carboxamide]",IC50,Human PKMYT1; [1],0.05 to 1 µM
same,IC50,WEE1; [2],> 11 µM
same,PKMYT1 vs. WEE1 selectivity,WEE1; [3],Y (1000-5000 fold)
Cc1ccc(O)c(C)c1NC(=O)c1cnc(Nc2ccn(CC(=O)N3CCN(C)CC3)n2)s1 [BAA-034],IC50,Human PKMYT1; [1],< 0.05 µM
same,IC50,WEE1; [2],1 to 11 µM
same,PKMYT1 vs. WEE1 selectivity,WEE1; [3],X (100-<1000 fold)
"Cc1ccc(O)c(C)c1NC(=O)c1cnc(NCCC(=O)N2CCOCC2)s1 [BAA-078, N-(3-hydroxy-2,6-dimethyl-phenyl)-2-[(3-morpholino-3-oxo-propyl)amino]thiazole-5-carboxamide]",IC50,Human PKMYT1; [1],0.05 to 1 µM
same,IC50,WEE1; [2],> 11 µM
same,PKMYT1 vs. WEE1 selectivity,WEE1; [3],>X (100-<1000 fold)
"CNC(=O)c1cc(Nc2ncc(C(=O)Nc3c(C)ccc(O)c3C)s2)nn1C [BAA-119, N-(3-hydroxy-2,6-dimethyl-phenyl)-2-[[1-methyl-5-(methylcarbamoyl)pyrazol-3-yl]amino]thiazole-5-carboxamide]",IC50,Human PKMYT1; [1],0.05 to 1 µM
same,IC50,WEE1; [2],> 11 µM
same,PKMYT1 vs. WEE1 selectivity,WEE1; [3],X (100-<1000 fold)
"Cc1ccc(O)c(C)c1NC(=O)c1cnc(Nc2ccn([C@@H]3CCN(C(=O)C(C)(C)C)C3)n2)s1 [BAA-080, 2-[[1-[(3R)-1-(2.2-Dimethylpropanoyl)pyrrolidin-3-yl]pyrazol-3-yl]amino]-N-(3-hydroxy-2,6-dimethyl-phenyl)thiazole-5-carboxamide]",IC50,Human PKMYT1; [1],0.05 to 1 µM
same,IC50,WEE1; [2],> 11 µM
same,PKMYT1 vs. WEE1 selectivity,WEE1; [3],>X (100-<1000 fold)
Cc1ccc(O)c(C)c1NC(=O)c1cnc(Nc2ccn(CC(=O)N3CCC[C@@H](O)C3)n2)s1 [BAA-161],IC50,Human PKMYT1; [1],< 0.05 µM
same,IC50,WEE1; [2],> 11 µM
same,PKMYT1 vs. WEE1 selectivity,WEE1; [3],Y (1000-5000 fold)
"Cc1ccc(O)c(C)c1NC(=O)c1cnc(Nc2ccn(CC(N)=O)n2)s1 [BAA-133, 2-[[1-(2-amino-2-oxo-ethyl)pyrazol-3-yl]amino]-N-(3-hydroxy-2,6-dimethyl-phenyl) thiazole-5-carboxamide]",IC50,Human PKMYT1; [1],< 0.05 µM
same,IC50,WEE1; [2],1 to 11 µM
same,PKMYT1 vs. WEE1 selectivity,WEE1; [3],X (100-<1000 fold)
"Cc1ccc(O)c(C)c1NC(=O)c1cnc(Nc2ccn(CC(=O)N3CCN(C4CC4)CC3)n2)s1 [BAA-182, 2-[[1-[2-(4-cyclopropylpiperazin-1-yl)-2-oxo-ethyl]pyrazol-3-yl]amino]-N-(3-hydroxy-2,6-dimethyl-phenyl)thiazole-5-carboxamide]",IC50,Human PKMYT1; [1],< 0.05 µM
same,IC50,WEE1; [2],> 11 µM
same,PKMYT1 vs. WEE1 selectivity,WEE1; [3],Y (1000-5000 fold)
"COc1cncnc1Nc1ncc(C(=O)Nc2c(C)ccc(O)c2C)s1 [BAA-559, N-(3-hydroxy-2,6-dimethylphenyl)-2-((5-methoxypyrimidin-4-yl)amino)thiazole-5-carboxamide]",IC50,Human PKMYT1; [4],< 0.05 µM
same,IC50,"WEE1; WEE1 15 nM, banded values",1 to 11 µM
same,PKMYT1 vs. WEE1 selectivity,WEE1; banded,X (100-<1000 fold)
"C#Cc1cccc(Nc2ncc(C(=O)Nc3c(C)ccc(O)c3C)s2)n1 [BAA-431, 2-((6-ethynylpyridin-2-yl)amino)-N-(3-hydroxy-2,6-dimethylphenyl)thiazole-5-carboxamide]",IC50,Human PKMYT1; [4],0.05 to 1 µM
same,IC50,"WEE1; WEE1 15 nM, banded values",> 11 µM
same,PKMYT1 vs. WEE1 selectivity,WEE1; banded,X (100-<1000 fold)
"Cc1csc(Nc2ncc(C(=O)Nc3c(C)ccc(O)c3C)s2)n1 [BAA-264, N-(3-hydroxy-2,6-dimethylphenyl)-2-((4-methylthiazol-2-yl)amino)thiazole-5-carboxamide]",IC50,Human PKMYT1; [1],< 0.05 µM
same,IC50,WEE1; [2],> 11 µM
same,PKMYT1 vs. WEE1 selectivity,WEE1; [3],X (100-<1000 fold)
"Cc1ccc(O)c(C)c1NC(=O)c1cnc(Nc2ccn(C)n2)o1 [BAA-462, N-(3-Hydroxy-2,6-dimethylphenyl)-2-((1-methyl-1H-pyrazol-3-yl)amino) oxazole-5-carboxamide]",IC50,Human PKMYT1; [4],0.05 to 1 µM
same,IC50,"WEE1; WEE1 15 nM, banded values",> 11 µM
same,PKMYT1 vs. WEE1 selectivity,WEE1; banded,X (100-<1000 fold)
COCCn1ccc(Nc2ncc(C(=O)Nc3c(C)ccc(O)c3C)s2)n1 [BAA-040],IC50,Human PKMYT1; [1],0.05 to 1 µM
same,IC50,WEE1; [2],> 11 µM
same,PKMYT1 vs. WEE1 selectivity,WEE1; [3],X (100-<1000 fold)
"Cc1ccc(O)c(C)c1NC(=O)c1cnc(Nc2ccc3cc(Br)cnc3n2)s1 [BAA-298, 2-((6-bromo-1,8-naphthyridin-2-yl)amino)-N-(3-hydroxy-2,6-dimethylphenyl)thiazole-5-carboxamide]",IC50,Human PKMYT1; [1],0.05 to 1 µM
same,IC50,WEE1; [2],> 11 µM
same,PKMYT1 vs. WEE1 selectivity,WEE1; [3],Y (1000-5000 fold)
CCCCCCCNC(=O)Cn1ccc(Nc2ncc(C(=O)Nc3c(C)ccc(O)c3C)s2)n1 [BAA-135],IC50,Human PKMYT1; [1],< 0.05 µM
same,IC50,WEE1; [2],1 to 11 µM
same,PKMYT1 vs. WEE1 selectivity,WEE1; [3],X (100-<1000 fold)
"Cc1ccc(O)c(Br)c1NC(=O)c1cnc(Nc2ccn(C)n2)s1 [BAA-468, N-(2-bromo-3-hydroxy-6-methyl-phenyl)-2-[(1-methylpyrazol-3-yl)amino]thiazole-5-carboxamide]",IC50,Human PKMYT1; [4],< 0.05 µM
same,IC50,"WEE1; WEE1 15 nM, banded values",1 to 11 µM
same,PKMYT1 vs. WEE1 selectivity,WEE1; banded,X (100-<1000 fold)
"Cc1ccc(O)c(C)c1NC(=O)c1cnc(Nc2cc(N3CCNCC3)ncn2)s1 [BAA-575, N-(3-Hydroxy-2,6-dimethylphenyl)-2-((6-(piperazin-1-yl)pyrimidin-4-yl)amino)thiazole-5-carboxamide]",IC50,Human PKMYT1; [4],< 0.05 µM
same,IC50,"WEE1; WEE1 15 nM, banded values",0.05 to 1 µM
same,PKMYT1 vs. WEE1 selectivity,WEE1; banded,W (10-<100 fold)
"Cc1ccc(O)c(C)c1NC(=O)c1cnc(Nc2cc(C)n(CC(C)O)n2)s1 (stereo not drawn) [BAA-540, N-(3-hydroxy-2,6-dimethylphenyl)-2-((1-(2-hydroxypropyl)-5-methyl-1H-pyrazol-3-yl)amino)thiazole-5-carboxamide]",IC50,Human PKMYT1; [4],< 0.05 µM
same,IC50,"WEE1; WEE1 15 nM, banded values",1 to 11 µM
same,PKMYT1 vs. WEE1 selectivity,WEE1; banded,X (100-<1000 fold)
"Cc1ccc(O)c(C)c1NC(=O)c1cnc(Nc2nccs2)s1 [BAA-257, N-(3-hydroxy-2,6-dimethylphenyl)-2-(thiazol-2-ylamino)thiazole-5-carboxamide]",IC50,Human PKMYT1; [1],< 0.05 µM
same,IC50,WEE1; [2],> 11 µM
same,PKMYT1 vs. WEE1 selectivity,WEE1; [3],Y (1000-5000 fold)
"CCN(C(=O)C(C)(C)C)c1ccc(C)c(Nc2ncc(C(=O)Nc3c(C)ccc(O)c3C)s2)n1 [BAA-234, 2-((6-(N-ethylpivalamido)-3-methylpyridin-2-yl)amino)-N-(3-hydroxy-2,6-dimethylphenyl) thiazole-5-carboxamide]",IC50,Human PKMYT1; [1],< 0.05 µM
same,IC50,WEE1; [2],1 to 11 µM
same,PKMYT1 vs. WEE1 selectivity,WEE1; [3],X (100-<1000 fold)
Cc1ccc(O)c(C)c1NC(=O)c1cnc(Nc2ccn([C@@H]3CCN(C(=O)Cc4cccs4)C3)n2)s1 [BAA-098],IC50,Human PKMYT1; [1],0.05 to 1 µM
same,IC50,WEE1; [2],> 11 µM
same,PKMYT1 vs. WEE1 selectivity,WEE1; [3],>X (100-<1000 fold)
"Cc1ccc(O)c(C)c1NC(=O)c1cnc(Nc2n[nH]c3cc(F)cc(F)c23)s1 [BAA-452, 2-((4,6-difluoro-1H-indazol-3-yl)amino)-N-(3-hydroxy-2,6-dimethylphenyl)thiazole-5-carboxamide]",IC50,Human PKMYT1; [4],0.05 to 1 µM
same,IC50,"WEE1; WEE1 15 nM, banded values",> 11 µM
same,PKMYT1 vs. WEE1 selectivity,WEE1; banded,X (100-<1000 fold)
